Experimental data from publication PMC4177916, “Characterization of the Sterol and Phosphatidylinositol 4-Phosphate Binding Properties of Golgi-Associated OSBP-Related Protein 9 (ORP9)” (PLoS ONE, 2014).
Positions count from the first letter of the chain named.

Legend:
Type in all cases: binding
ORP9L [1] = target: T1, ORP9L (Homo sapiens, UniProt Q96SU4); test: inhibition of CTL extraction from liposomes (FRET); settings: equimolar cholesterol and CTL (2.5 mol% each); pH 7.4, 30 °C
T1 construct: gene OSBPL9; full-length long variant, C-terminal V5-His tag (stated for the HH/AA mutant)
T1 sequence (Q96SU4 2-736): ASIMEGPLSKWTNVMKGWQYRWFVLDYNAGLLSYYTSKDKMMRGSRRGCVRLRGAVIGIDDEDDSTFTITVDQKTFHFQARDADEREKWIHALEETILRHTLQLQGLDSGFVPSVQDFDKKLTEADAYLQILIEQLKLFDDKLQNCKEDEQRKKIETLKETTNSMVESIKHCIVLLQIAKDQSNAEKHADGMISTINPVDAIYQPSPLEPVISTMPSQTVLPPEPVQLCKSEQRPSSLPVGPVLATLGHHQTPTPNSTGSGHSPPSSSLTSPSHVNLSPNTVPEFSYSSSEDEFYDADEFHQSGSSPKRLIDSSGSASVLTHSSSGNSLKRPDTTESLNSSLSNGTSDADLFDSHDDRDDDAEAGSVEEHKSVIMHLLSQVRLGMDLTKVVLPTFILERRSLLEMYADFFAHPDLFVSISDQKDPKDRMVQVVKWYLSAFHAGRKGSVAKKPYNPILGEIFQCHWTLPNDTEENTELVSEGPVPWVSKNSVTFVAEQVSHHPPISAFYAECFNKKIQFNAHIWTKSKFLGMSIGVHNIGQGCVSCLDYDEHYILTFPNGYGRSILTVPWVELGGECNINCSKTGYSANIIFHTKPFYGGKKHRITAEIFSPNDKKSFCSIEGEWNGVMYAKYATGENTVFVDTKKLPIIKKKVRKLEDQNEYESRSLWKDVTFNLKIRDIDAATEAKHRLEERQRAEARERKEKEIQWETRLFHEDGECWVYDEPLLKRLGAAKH

ORP9S = target: T2, ORP9S (Homo sapiens, UniProt Q96SU4); test: […]PI-4P extraction from liposomes, sedimentation; settings: pH 7.4, 25 °C, 20 min; 0.1 mM liposomes with 0.5 mol% PI-4P; labelled compound
T2 construct: gene OSBPL9; short variant lacking N-terminal PH domain, His-tagged
T2 sequence (Q96SU4 100-736 limits assumed): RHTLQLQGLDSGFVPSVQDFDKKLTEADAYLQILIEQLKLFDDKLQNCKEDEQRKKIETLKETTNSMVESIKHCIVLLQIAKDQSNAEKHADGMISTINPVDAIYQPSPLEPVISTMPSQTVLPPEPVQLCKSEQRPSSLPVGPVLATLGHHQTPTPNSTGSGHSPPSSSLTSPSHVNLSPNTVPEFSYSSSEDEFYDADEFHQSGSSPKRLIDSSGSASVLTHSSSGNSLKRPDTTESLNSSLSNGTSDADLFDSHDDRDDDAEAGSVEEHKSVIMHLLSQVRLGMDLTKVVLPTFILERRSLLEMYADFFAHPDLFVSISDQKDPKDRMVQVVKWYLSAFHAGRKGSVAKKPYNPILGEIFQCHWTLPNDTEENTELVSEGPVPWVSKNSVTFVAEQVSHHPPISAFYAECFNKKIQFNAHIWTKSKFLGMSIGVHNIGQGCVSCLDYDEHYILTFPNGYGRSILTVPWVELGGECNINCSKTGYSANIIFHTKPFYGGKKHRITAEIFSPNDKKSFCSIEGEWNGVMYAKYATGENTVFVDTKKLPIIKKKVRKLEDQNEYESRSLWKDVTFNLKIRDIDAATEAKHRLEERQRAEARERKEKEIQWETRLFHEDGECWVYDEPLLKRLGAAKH

ORP9L [2] = target: T1, ORP9L; test: as above; settings: pH 7.4, 25 °C, 20 min; 0.1 mM liposomes with 0.5 mol% PI-4P; labelled compound
ORP9L [3] = target: T3, ORP9L (Homo sapiens, UniProt Q96SU4, H501A/H502A, form not given); test: as above; settings: 100 pmol protein; pH 7.4, 25 °C, 20 min; labelled compound
T3 construct: gene OSBPL9; full-length long variant, C-terminal V5-His tag (stated for the HH/AA mutant)
T3 sequence (Q96SU4 2-736 H501A/H502A): T1 sequence (Q96SU4 2-736) with H500A, H501A

Osh6 = target: T4, Osh6 (Saccharomyces cerevisiae, UniProt Q02201); test: [3H]PS extraction from liposomes, sedimentation; settings: 100 pmol protein; pH 7.4, 25 °C, 20 min; labelled compound
T4 construct: hexahistidine-SUMO3-tagged, expressed in bacteria
T4 sequence (Q02201 1-448): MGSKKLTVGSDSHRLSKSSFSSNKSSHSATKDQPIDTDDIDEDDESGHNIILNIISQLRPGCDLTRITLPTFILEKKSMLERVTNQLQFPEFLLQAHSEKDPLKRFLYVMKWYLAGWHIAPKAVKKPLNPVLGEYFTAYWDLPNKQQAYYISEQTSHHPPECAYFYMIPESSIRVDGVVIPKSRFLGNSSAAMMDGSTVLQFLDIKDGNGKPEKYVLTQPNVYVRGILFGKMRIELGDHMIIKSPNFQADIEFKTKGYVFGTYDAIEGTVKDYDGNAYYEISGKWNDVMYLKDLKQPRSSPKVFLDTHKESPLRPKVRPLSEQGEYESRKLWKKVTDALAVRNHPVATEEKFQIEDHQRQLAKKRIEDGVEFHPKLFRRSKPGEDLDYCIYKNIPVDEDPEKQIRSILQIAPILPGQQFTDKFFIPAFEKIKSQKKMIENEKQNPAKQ

## CC(C)CCC[C@@H](C)[C@H]1CC[C@H]2[C@@H]3CC=C4C[C@@H](O)CC[C@]4(C)[C@H]3CC[C@]12C [cholesterol]
ORP9L [1]
  % inhibition of CTL extraction: 50%

## PI-4P
ORP9S
  % extraction: 14%
ORP9L [2]
  % maximal extraction: 9%
ORP9L [3]
  % reduction of extraction versus wild type: > 75%

## phosphatidylserine
Osh6
  % extraction: ~ 2%
